Measured values published in ChEMBL document CHEMBL3400074, “Development of 2-amino-5-phenylthiophene-3-carboxamide derivatives as novel inhibitors of Mycobacterium tuberculosis DNA GyrB domain” (Bioorg Med Chem, 2015).

Key:
[1] = Inhibition of Mycobacterium tuberculosis DNA GyrA/B heterotetramer assessed as inhibition of pBR322 supercoiling after 30 mins by gel electrophoresis
DNA gyrase subunit B = DNA gyrase subunit B (Mycobacterium smegmatis, UniProt P0C559); assay: Inhibition of Mycobacterium smegmatis DNA GyrB domain assessed as inhibition of inorganic phosphate release after 100 mins at room temperature by ATPase assay; set-up: species or system Mycolicibacterium smegmatis
[2] = Cytotoxicity against mouse RAW264.7 cells at 100 uM after 48 hrs by MTT assay; type: cell-based; conditions: read-out: INH
[3] = molecular target: DNA gyrase subunit B (Mycobacterium smegmatis) (UniProt P0C559); assay: Binding affinity to Mycobacterium smegmatis DNA GyrB domain assessed as change in melting temperature by differential scanning fluorimetry; conditions: Mycolicibacterium smegmatis
Sequence of DNA gyrase subunit B (Mycobacterium smegmatis) (P0C559 2-675 limits assumed): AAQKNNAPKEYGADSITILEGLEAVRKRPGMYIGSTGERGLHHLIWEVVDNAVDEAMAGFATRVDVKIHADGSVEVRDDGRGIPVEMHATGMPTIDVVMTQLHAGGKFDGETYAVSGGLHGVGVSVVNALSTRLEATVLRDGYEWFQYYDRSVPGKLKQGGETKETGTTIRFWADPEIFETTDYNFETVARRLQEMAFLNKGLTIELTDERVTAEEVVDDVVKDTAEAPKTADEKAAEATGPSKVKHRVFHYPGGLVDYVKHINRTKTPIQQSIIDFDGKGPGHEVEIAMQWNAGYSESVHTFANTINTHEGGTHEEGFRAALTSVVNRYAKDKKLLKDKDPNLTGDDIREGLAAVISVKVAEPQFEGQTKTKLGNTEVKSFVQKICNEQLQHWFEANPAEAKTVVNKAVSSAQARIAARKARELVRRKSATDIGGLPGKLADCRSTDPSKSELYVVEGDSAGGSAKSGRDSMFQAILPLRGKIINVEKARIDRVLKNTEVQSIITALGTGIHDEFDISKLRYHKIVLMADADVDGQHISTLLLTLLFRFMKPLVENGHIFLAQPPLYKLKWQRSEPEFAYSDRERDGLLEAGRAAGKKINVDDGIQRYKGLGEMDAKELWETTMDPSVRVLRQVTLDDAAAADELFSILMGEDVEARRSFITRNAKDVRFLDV

Sequence of DNA gyrase subunit B (P0C559 whole entry, the tested form may be a part): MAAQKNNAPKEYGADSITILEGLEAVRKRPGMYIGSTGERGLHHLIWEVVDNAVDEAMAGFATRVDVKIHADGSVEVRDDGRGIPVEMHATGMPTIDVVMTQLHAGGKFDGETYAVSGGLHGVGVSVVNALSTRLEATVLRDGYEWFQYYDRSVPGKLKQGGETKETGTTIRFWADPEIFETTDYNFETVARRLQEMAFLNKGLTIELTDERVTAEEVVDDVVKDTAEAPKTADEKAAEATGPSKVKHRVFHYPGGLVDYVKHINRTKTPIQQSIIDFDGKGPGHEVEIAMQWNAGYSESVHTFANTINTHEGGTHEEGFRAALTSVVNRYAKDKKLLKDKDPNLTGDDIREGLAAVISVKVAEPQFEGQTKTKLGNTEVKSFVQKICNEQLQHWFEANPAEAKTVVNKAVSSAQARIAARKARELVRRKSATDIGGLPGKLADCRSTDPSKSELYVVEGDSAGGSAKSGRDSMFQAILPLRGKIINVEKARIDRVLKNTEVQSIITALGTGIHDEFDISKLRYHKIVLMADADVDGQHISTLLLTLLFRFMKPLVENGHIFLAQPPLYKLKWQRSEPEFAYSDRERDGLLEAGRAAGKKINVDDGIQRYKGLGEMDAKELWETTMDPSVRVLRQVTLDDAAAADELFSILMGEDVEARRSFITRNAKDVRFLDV

Structure (SMILES)	IC50 [1] [µM]	IC50 (DNA gyrase subunit B) [µM]	cytotoxicity at 48 h, 100 µM [2] [%]	ΔTm [3] [°C]
CCCC(=O)Nc1sc(-c2ccccc2)cc1C(N)=O	3.14	3.57	39.8	
NC(=O)c1cc(-c2ccccc2)sc1NC(=O)Nc1ccccc1	1.32	1.83	37.3	
Cc1ccc(NC(=O)Nc2sc(-c3ccccc3)cc2C(N)=O)cc1	> 25	24	37.6	
NC(=O)c1cc(-c2ccccc2)sc1NC(=S)Nc1ccc(F)cc1	> 25	48.9	32.1	
NC(=O)c1cc(-c2ccccc2)sc1NC(=O)c1ccccc1	0.76	0.86	37.6	2.5
NC(=O)c1cc(-c2ccccc2)sc1NC(=O)C1CCCC1	> 25	42.2	39.7	
NC(=O)c1cc(-c2ccccc2)sc1NC(=O)C1CCCCC1	9.83	10.2	39	
NC(=O)c1cc(-c2ccccc2)sc1NC(=O)Nc1ccc(F)cc1	9.88	11.5	33.7	
CC(C)NC(=S)Nc1sc(-c2ccccc2)cc1C(N)=O	9.25	16.2	35.5	
NC(=O)c1cc(-c2ccccc2)sc1NC(=O)c1cc2ccccc2[nH]1	18.2	22	36.2	
NC(=O)c1cc(-c2ccccc2)sc1NC(=S)Nc1ccc([N+](=O)[O-])cc1	> 25	32.5	40.3	
CC(=O)Nc1sc(-c2ccccc2)cc1C(N)=O	11.8	19.1	37.5	
CC(C)NC(=O)Nc1sc(-c2ccccc2)cc1C(N)=O	6.17	6.47	36.1	
NC(=O)c1cc(-c2ccccc2)sc1NC(=S)Nc1ccc(Cl)cc1	> 25	71.4	36.1	
NC(=O)c1cc(-c2ccccc2)sc1NC(=O)c1cnccn1	> 25	18.4	34.3	
NC(=O)c1cc(-c2ccccc2)sc1NC(=S)Nc1ccccc1	> 25	70.3	32.8	
Cc1ccc(NC(=S)Nc2sc(-c3ccccc3)cc2C(N)=O)cc1	2.97	2.46	34.8	
NC(=O)c1cc(-c2ccccc2)sc1NC(=O)c1ccc(Oc2ccccc2)cc1	8.85	17.3	35.8	
NC(=O)c1cc(-c2ccccc2)sc1NC(=O)Nc1ccc([N+](=O)[O-])cc1	10.9	12.8	37.3	
CCC(=O)Nc1sc(-c2ccccc2)cc1C(N)=O	5.62	11.8	39.4	
NC(=O)c1cc(-c2ccccc2)sc1NC(=O)c1ccc([N+](=O)[O-])cc1	6.77	8.91	35.9	
NC(=O)c1cc(-c2ccccc2)sc1NC(=S)NCc1ccccc1	17.8	28.3	36.1	
NC(=O)c1cc(-c2ccccc2)sc1NC(=O)c1cccc2ccccc12	> 25	28.6	36.8	
NC(=O)c1cc(-c2ccccc2)sc1NC(=S)Nc1ccc(Br)cc1	9.63	10.9	35.6	
NC(=O)c1cc(-c2ccccc2)sc1NC(=O)Nc1ccc(Br)cc1	> 25	12.2	37.6	
CO[C@@H]1[C@@H](OC(N)=O)[C@@H](O)[C@H](Oc2ccc3c(O)c(NC(=O)c4ccc(O)c(CC=C(C)C)c4)c(=O)oc3c2C)OC1(C)C [NOVOBIOCIN]			81.7	
NC(=O)c1cc(-c2ccccc2)sc1NC(=O)Nc1ccc(Cl)cc1	2.97	3.14	38.2	
NC(=O)c1cc(-c2ccccc2)sc1NC(=O)c1ccc(Cl)cc1	5.82	6.69	38.5	
NC(=O)c1cc(-c2ccccc2)sc1NC(=O)c1cccs1	1.16	1.5		
NC(=O)c1cc(-c2ccccc2)sc1NC(=O)NCc1ccccc1	8.89	10.8	33	
